Laboratory results from patent US10421761B2, “Compounds for kinase modulation, and indications therefor” (Plexxikon Inc., priority 2013, dated 2019).

Key:
[1] = tested on: gastric cancer cell line MKN28; details: cited from earlier work
B9 (HRAS Q61L) cell line = assay: B9 P-ERK cell activation assay (AlphaScreen); format: cell-based, mouse; details: RAS mutant cell line B9; one hour treatment
How it was run: (§1)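 Phospho-ERK1/2 (Thr202/Tyr204) in lysates quantified via AlphaScreen bead proximity, after one-hour, 37° C. exposure of cells to eight compound concentrations. Lines: IPC-298 human melanoma with activated NRAS; B9 mouse squamous carcinoma with activated HRAS.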

[2] = tested on: IPC-298 (NRAS Q61L) cell line; assay: IPC-298 P-ERK cell activation assay (AlphaScreen); format: cell-based, human; details: RAS mutant cell line IPC-298; one hour treatment
How it was run: as §1

[3] = tested on: A375 (BRAF V600E) cell line; assay: A375 P-ERK inhibition assay (AlphaScreen); format: cell-based, human; details: BRAF V600E cell line A375
How it was run: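 Phospho-ERK1/2 (Thr202/Tyr204) detected in lysates by AlphaScreen proximity signal, pairing a total-ERK antibody with a phospho-specific antibody. Before lysis, A375 cells received compound as an 8-point titration for one hour at 37° C.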

[4] = tested on: mutant BRAF V600 driven melanoma; details: cited from earlier work

CS(=O)(=O)Nc1ccc([N+](=O)[O-])cc1OC1CCCCC1 [NS-398]
proliferation and growth of MKN28 [1]: significantly inhibit proliferation and growth

CC(C)(C)c1nc(-c2cccc(NS(=O)(=O)c3c(F)cccc3F)c2F)c(-c2ccnc(N)n2)s1 [dabrafenib, reference compound]
pERK activation (B9 (HRAS Q61L) cell line): unusual bell-shaped pERK activation curve | pERK activation [2]: unusual bell-shaped pERK activation curve | pERK inhibition [3]: highly potent inhibitor | tumor response in patients [4]: objective tumor response

COc1ccc2c(c1)c(CC(=O)O)c(C)n2C(=O)c1ccc(Cl)cc1 [indomethacin]
proliferation and growth of MKN28 [1]: significantly inhibit proliferation and growth
